According to PubChem BioAssay (NCI):
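Cells were grown in 96-well plates and exposed to each compound for 48 hours at five concentrations; endpoints were interpolated linearly between bracketing concentrations, or set to the highest concentration if not reached. GI50 = concentration required for 50% inhibition of growth. TGI denotes the concentration required for complete inhibition of growth.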

Assays:
Experiment in all cases: DTP human tumour cell line panel, 48 h
786-0 renal = system: 786-0 renal
A498 renal = system: A498 renal
A549 NSCLC = system: A549 NSCLC
ACHN renal = system: ACHN renal
BT-549 breast = system: BT-549 breast
CAKI-1 renal = system: CAKI-1 renal
CCRF-CEM leukemia = system: CCRF-CEM leukemia
COLO 205 colon = system: COLO 205 colon
DU-145 prostate = system: DU-145 prostate
EKVX NSCLC = system: EKVX NSCLC
HCC-2998 colon = system: HCC-2998 colon
HCT-116 colon = system: HCT-116 colon
HCT-15 colon = system: HCT-15 colon
HL-60(TB) leukemia = system: HL-60(TB) leukemia
HOP-62 NSCLC = system: HOP-62 NSCLC
HOP-92 NSCLC = system: HOP-92 NSCLC
HS 578T breast = system: HS 578T breast
HT29 colon = system: HT29 colon
K-562 leukemia = system: K-562 leukemia
KM12 colon = system: KM12 colon
LOX IMVI melanoma = system: LOX IMVI melanoma
M14 melanoma = system: M14 melanoma
MALME-3M melanoma = system: MALME-3M melanoma
MCF7 breast = system: MCF7 breast
MDA-MB-231 breast = system: MDA-MB-231 breast
MDA-MB-435 = system: MDA-MB-435
MOLT-4 leukemia = system: MOLT-4 leukemia
NCI-H226 lung = system: NCI-H226 lung
NCI-H23 lung = system: NCI-H23 lung

For `COc1cc(/C=C/C(=O)/C=C/c2ccc(-n3ccnc3)cc2)ccc1O`, the GI50 (786-0 renal) was 2.01 µM, the TGI (786-0 renal) was 4.85 µM and the GI50 (A498 renal) was 7.22 µM. For the same compound, the TGI (A498 renal) was 19.9 µM, the GI50 (A549 NSCLC) was 3.19 µM and the TGI (A549 NSCLC) was 15.6 µM. The GI50 (ACHN renal) was 3.27 µM, the TGI (ACHN renal) was 12.6 µM and the GI50 (BT-549 breast) was 1.87 µM. For the same compound, the TGI (BT-549 breast) was 3.79 µM, the GI50 (CAKI-1 renal) was 3.24 µM and the TGI (CAKI-1 renal) was 11.5 µM. The GI50 (CCRF-CEM leukemia) was 2.68 µM, the TGI (CCRF-CEM leukemia) was 12.7 µM and the GI50 (COLO 205 colon) was 3.26 µM. It also gave a TGI (COLO 205 colon) of 10.1 µM, a GI50 (DU-145 prostate) of 3.36 µM and a TGI (DU-145 prostate) of 10.1 µM. It also gave a GI50 (EKVX NSCLC) of 13.2 µM, a TGI (EKVX NSCLC) of 42 µM and a GI50 (HCC-2998 colon) of 1.79 µM. It also gave a TGI (HCC-2998 colon) of 3.42 µM, a GI50 (HCT-116 colon) of 1.45 µM and a TGI (HCT-116 colon) of 2.93 µM. For the same compound, the GI50 (HCT-15 colon) was 2.48 µM, the TGI (HCT-15 colon) was 6.89 µM and the GI50 (HL-60(TB) leukemia) was 3.29 µM. It also gave a TGI (HL-60(TB) leukemia) of 22.4 µM, a GI50 (HOP-62 NSCLC) of 3.12 µM and a TGI (HOP-62 NSCLC) of 11.8 µM. The GI50 (HOP-92 NSCLC) was 10.5 µM, the TGI (HOP-92 NSCLC) was 27.1 µM and the GI50 (HS 578T breast) was 2.91 µM. For the same compound, the TGI (HS 578T breast) was > 100 µM, the GI50 (HT29 colon) was 1.97 µM and the TGI (HT29 colon) was 3.88 µM. For the same compound, the GI50 (K-562 leukemia) was 3.18 µM, the TGI (K-562 leukemia) was > 100 µM and the GI50 (KM12 colon) was 2.11 µM. For the same compound, the TGI (KM12 colon) was 4.59 µM, the GI50 (LOX IMVI melanoma) was 1.74 µM and the TGI (LOX IMVI melanoma) was 3.19 µM. For the same compound, the GI50 (M14 melanoma) was 2.24 µM, the TGI (M14 melanoma) was 5.98 µM and the GI50 (MALME-3M melanoma) was 5.4 µM. For the same compound, the TGI (MALME-3M melanoma) was 36.7 µM, the GI50 (MCF7 breast) was 0.827 µM and the TGI (MCF7 breast) was 6.21 µM. For the same compound, the GI50 (MDA-MB-231 breast) was 3.47 µM, the TGI (MDA-MB-231 breast) was 13 µM and the GI50 (MDA-MB-435) was 2.21 µM. It also gave a TGI (MDA-MB-435) of 5.14 µM, a GI50 (MOLT-4 leukemia) of 3.22 µM and a TGI (MOLT-4 leukemia) of 42.8 µM. For the same compound, the GI50 (NCI-H226 lung) was 2.31 µM, the TGI (NCI-H226 lung) was 5.8 µM and the GI50 (NCI-H23 lung) was 2.07 µM.
